Measurements taken from patent US20160367553A1, “Methods and Compositions for Treating Cancers having Acquired Resitance to prior Chemotherapeutic and Targeted Drugs Using Carboxyamidotriazole Orotate” (priority 2015, published 2016).

How the values were obtained:
[1] = system: refractory head and neck tumor; experiment: Phase I clinical study of CTO, patient with refractory head and neck tumor; type: in vivo, human; settings: tumor PBKCA, E545K, 285 mg/m2/day
Experimental: The effectiveness of the CTO treatment is determined by controlled clinical studies. The cancers are evaluated by measuring tumors no more than 14 days before the start of the treatment, and evaluated after 2 cycles of 28 days after day 1 of the administration of the first dose of CTO. The tumor size is measured by the most accurate measurement such as PET-CT, CI scan, MRI scan, x-ray, ultrasound, etc. The criteria for evaluating response are described in the revised Response Evaluation Criteria in Solid Tumors Guidelines, Eisenhauer et al, 1990 and by the Macdonald Criteria for response to high grade gliomas, Macdonald. et al, 1990.
“Progressive disease” is defined as an increase of 25% or greater in the product of the largest perpendicular diameters for at least one bidimensionally measurable tumor, or an increase of 25% or greater at least one undimensionally measurable tumor or appearance of a new lesion or clinical deterioration. […]
“Partial response” means a) for bidimensionally measurable tumors, a decrease of at least 50% in the sum of the products of tire largest perpendicular diameters of all measurable tumors as determined by two observations not less than four weeks apart, b) for undimensionally measurable tumors, a decrease by at least 50% in the sum of the largest diameters of all tumors as determined by two observation not less than four weeks apart. […]

refractory NSCLC = experiment: Phase I clinical study of CTO, patients with refractory NSCLC; type: in vivo, human; settings: NSCLC patient; for tumor response measured after two cycles: docetaxel, erlotinib, 28 days
[2] = system: metastatic colorectal cancer; experiment: Phase I clinical study of CTO, patient with refractory metastatic colorectal cancer; type: in vivo, human; settings: 285 mg/m2/day
renal cell carcinoma = experiment: Phase I clinical study of CTO, patient with refractory renal cell carcinoma; type: in vivo, human; settings: 75 mg/m2/day
[3] = system: Akt and Erk1/2 phosphorylation; settings: exosomes-stimulated HUVEC cell; cited from earlier work
VEGF = settings: cited from earlier work
[4] = system: imatinib mesylate-resistant chronic myeloid leukemia cells; settings: cited from earlier work

**Q.** Which results are given for NC(=O)c1nnn(Cc2cc(Cl)c(C(=O)c3ccc(Cl)cc3)c(Cl)c2)c1N.O=C(O)c1cc(=O)[nH]c(=O)[nH]1 [CTO, carboxyamidotriazole orotate]?
**A.** stable disease and partial response registered for [1]: more than six; tumor response measured after two cycles ([1]; prior cetuximab, cisplatin, taxotere, 28 days, two cycles): responded by not progressing; stable disease and partial response registered for (refractory NSCLC; tumor EGFR, ELREATS 746-752 V (exon 19), 219 mg/m2/day): more than twelve; tumor response measured after two cycles (refractory NSCLC; tumor EGFR, ELREATS 746-752 V (exon 19), prior carboplatin, paclitaxel, cisplatin, gemcitamide, premetrexed, 219 mg/m2/day): responded by not progressing; stable disease and partial response registered for (refractory NSCLC; tumor PI3KCA, E545K, 219mg/m2/day): more than twelve; tumor response measured after two cycles (refractory NSCLC; tumor PI3KCA, E545K, prior paclitaxel, carboplatin, 219mg/m2/day): responded by not progressing; tumor response measured after two cycles ([2]; tumor BRAF V660E, prior leucovorin, fluorouracil, oxaliplatin, bevacizumab, cetuximab, capecitabine, panitumumab, irinotecan, 28 days, two cycles): responded to CTO by not progressing; stable disease and partial response registered for ([2]; tumor): six; stable disease and partial response registered for (renal cell carcinoma; CTO continued): over twelve; tumor response measured after two cycles (renal cell carcinoma; prior IL-2, pegylated IFN, sorafenib, sunitnib, erlotinib, torisel, 28 days, two cycles): responded by not progressing; effect on Akt and Erk1/2 phosphorylation [3]: inhibits Akt and Erk1/2 phosphorylation

**Q.** With NC(=O)c1nnn(Cc2cc(Cl)c(C(=O)c3ccc(Cl)cc3)c(Cl)c2)c1N [CAI, Carboxyamidotriazole] as the molecule, how does the “effect on VEGF expression and secretion” value (VEGF) read?
**A.** inhibits VEGF expression, and secretion

**Q.** What about the “apoptosis by down-regulating bcr-abl” value [4] of the same molecule?
**A.** induces apoptosis
